The values below come from patent EP4745117A1, “NOVEL INDENONE DERIVATIVE AND USE THEREOF” (Amyloid Solution Inc., priority 2023, dated 2025).

Read-outs that look alike come from different tables or passages of the source.

For one assay, the target named is T1, Aβ1-42 (Homo sapiens, UniProt P05067).
T1 construct: dissolving Aβ1-42 or Tau-RD3 (Tau repeat domain 3) monomers in DMSO
Description: Amyloid-beta disaggregation test by Thioflavin-T analysis. The assay is classed as biochemical. As for the experimental part: (§1) Each compound was dissolved in DMSO to a concentration of 10 mM. Then, the compounds were diluted with 6 % DMSO (in DW) for use.
(§2) Amyloid-beta and tau solutions were prepared by dissolving Aβ1-42 or Tau-RD3 (Tau repeat domain 3) monomers in DMSO to a concentration of 10 mM. Then, the solutions were diluted to 100 µM with DW and stored on ice.
(§3) Meanwhile, Thioflavin-T was dissolved in 50 mM glycine buffer (pH 8.5) to a concentration of 5 mM. Then, the solution was diluted to 5 µM with 50 mM glycine buffer (pH 8.5) and stored in the dark, protected from light.
(§4) The amyloid-beta and tau solutions prepared in Example 1.1 were each placed in 1.5 mL microcentrifuge tubes to a concentration of 50 µM or 35 µM, respectively, and then reacted at 37 °C for 24 hours.
(§5) To each 1.5 mL microcentrifuge tube in which the amyloid-beta and tau aggregation was complete, the compounds were added at concentrations ranging from 500 µM down to 0 µM by serial dilution, and then further reacted at 37 °C for 48 hours.
(§6) 25 µL of each completed reaction solution was added to each well of a 96-well fluorescence analysis plate, and 75 µL of the Thioflavin-T solution was added to each well. After reacting for 5 minutes at room temperature in the dark, the fluorescence value was measured at 450 nm (excitation) and 485 nm (emission) using a multi-mode microplate reader.
(§7) The fluorescence value of the group (control group) treated with only amyloid-beta or tau and aggregated for 72 hours was designated as 100 %. The fluorescence values measured after treating the amyloid-beta and tau aggregates (formed by reacting for 24 hours) with each compound by concentration and reacting for an additional 48 hours were converted to relative values.

Assay [1] addresses Tau-RD3 (Tau repeat domain 3) (Homo sapiens, UniProt P10636). Kind of assay: Tau disaggregation test by Thioflavin-T analysis. Conditions: for EC50: Tau-RD3 35 µM aggregated 24 hours, then compound 0 - 500 µM for 48 hours at 37 °C, concentration disaggregating 50 % of aggregates vs control, read-out: EC50 (µM) Tau. The assay is classed as biochemical. The protocol:
as §1, §2, §3, §4, §5, §6, §7

[2] abbreviates: Aβ1-42 50 µM aggregated 24 hours, then compound 0 - 500 µM for 48 hours at 37 °C, concentration disaggregating 50 % of aggregates vs control, read-out: EC50 (µM) Aβ.
Setting [3] is: statement in words summarising the Thioflavin-T results.

Chain of Tau-RD3 (Tau repeat domain 3) (P10636 623-653 limits assumed): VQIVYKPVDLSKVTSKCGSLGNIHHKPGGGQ
T1 sequence (P05067 672-713 limits assumed): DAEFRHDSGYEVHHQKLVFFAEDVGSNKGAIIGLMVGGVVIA

A word on the EC50: it is the concentration needed to bring the measured effect to its halfway point. For `Cc1ncsc1C1=C(c2cnn(C)c2)C(=O)c2cc(OCCCc3ccccc3)ccc21` [Compound 28, 2-(1-methyl-1H-pyrazol-4-yl)-3-(4-methylthiazol-5-yl)-6-(3-phenylpropoxy)-1H-inden-1-one], the EC50 (on Aβ1-42 (setting [2]); in assay [1]) was under 20 µM throughout. For the same compound, on Aβ1-42 (setting [3]), the “disaggregation effect for amyloid-beta protein aggregates” value is on record as “remarkably excellent disaggregation effect”. In assay [1] (setting [3]), the “disaggregation effect for tau protein aggregates” value was “remarkably excellent disaggregation effect”.

`Cc1ncsc1C1=C(c2ccn(C3CCN(C)CC3)n2)C(=O)c2cc(OCCCc3ccccc3)ccc21` [Compound 29, 2-(1-(1-methylpiperidin-4-yl)-1H-pyrazol-3-yl)-3-(4-methylthiazol-5-yl)-6-(3-phenylpropoxy)-1H-inden-1-one]: the EC50 (at Aβ1-42; in assay [1]) was over 250 µM throughout.

As for `Cc1ncsc1C1=C(c2c[nH]nn2)C(=O)c2cc(OCCCc3ccccc3)ccc21` [Compound 31, 3-(4-methylthiazol-5-yl)-6-(3-phenylpropoxy)-2-(1H-1,2,3-triazol-4-yl)-1H-inden-1-one], the EC50 (at Aβ1-42 (setting [2]); in assay [1]) was under 20 µM in each case.

`Cc1ncsc1C1=C(c2cn(C)nn2)C(=O)c2cc(OCCCc3ccccc3)ccc21` [Compound 32, 2-(1-methyl-1H-1,2,3-triazol-4-yl)-3-(4-methylthiazol-5-yl)-6-(3-phenylpropoxy)-1H-inden-1-one]: the EC50 (on Aβ1-42 (setting [2]); in assay [1]) was under 20 µM each time.

For the compound `Cc1ncsc1C1=C(c2cnn(C)n2)C(=O)c2cc(OCCCc3ccccc3)ccc21` [Compound 33, 2-(2-methyl-2H-1,2,3-triazol-4-yl)-3-(4-methylthiazol-5-yl)-6-(3-phenylpropoxy)-1H-inden-1-one], the EC50 (at Aβ1-42 (setting [2]); in assay [1]) was under 20 µM in each case.

In the case of `Cc1ncsc1C1=C(C#N)C(=O)c2cc(OCCCc3ccccc3)ccc21` [Compound 34, 3-(4-methylthiazol-5-yl)-1-oxo-6-(3-phenylpropoxy)-1H-indene-2-carbonitrile], the EC50 on Aβ1-42 (setting [2]) is over 250 µM; in assay [1], 100 to 250 µM.

On to `Cc1ncsc1C1=C(c2cccnc2)C(=O)c2cc(O)ccc21` [Compound 35, 6-hydroxy-3-(4-methylthiazol-5-yl)-2-(pyridin-3-yl)-1H-inden-1-one], for which the EC50 (at Aβ1-42 (setting [2]); in assay [1]) was 20 to 100 µM each time.

In the case of `Cc1ncsc1C1=C(c2cccnc2)C(=O)c2cc(OCCO)ccc21` [Compound 36, 6-(2-hydroxyethoxy)-3-(4-methylthiazol-5-yl)-2-(pyridin-3-yl)-1H-inden-1-one], the concentration for a half-maximal effect (EC50) on Aβ1-42 (setting [2]) lay in the range of 100 to 250 µM; in assay [1], 20 to 100 µM.

In the case of `COCCOc1ccc2c(c1)C(=O)C(c1cccnc1)=C2c1scnc1C` [Compound 37, 6-(2-methoxyethoxy)-3-(4-methylthiazol-5-yl)-2-(pyridin-3-yl)-1H-inden-1-one], the concentration giving a half-maximal response (EC50) (on Aβ1-42 (setting [2]); in assay [1]) was 20 to 100 µM each time.

Regarding `Cc1ncsc1C1=C(c2cccnc2)C(=O)c2cc(N(C)CCCc3ccccc3)ccc21` [Compound 38, 6-(methyl(3-phenylpropyl)amino)-3-(4-methylthiazol-5-yl)-2-(pyridin-3-yl)-1H-inden-1-one], the EC50 on Aβ1-42 (setting [2]) is under 20 µM; in assay [1], over 250 µM.

With `Cc1ncsc1C1=C(c2ccncc2)C(=O)c2cc(OCCCc3ccccc3)ccc21` [Compound 39, 3-(4-methylthiazol-5-yl)-6-(3-phenylpropoxy)-2-(pyridin-4-yl)-1H-inden-1-one], the EC50 is under 20 µM on Aβ1-42 (setting [2]) and over 250 µM in assay [1].

With `Cc1ncsc1C1=C(c2ccncc2)C(=O)c2cc(O)ccc21` [Compound 39-3, 6-hydroxy-3-(4-methylthiazol-5-yl)-2-(pyridin-4-yl)-1H-inden-1-one], the EC50 (at Aβ1-42 (setting [2]); in assay [1]) was over 250 µM throughout.

In the case of `Cc1ncsc1C1=C(c2ccccn2)C(=O)c2cc(OCCCc3ccccc3)ccc21` [Compound 40, 3-(4-methylthiazol-5-yl)-6-(3-phenylpropoxy)-2-(pyridin-2-yl)-1H-inden-1-one], the 50% effective concentration (EC50) at Aβ1-42 (setting [2]) is under 20 µM; in assay [1], over 250 µM.

For `Cc1ncsc1C1=C(c2ccccn2)C(=O)c2cc(O)ccc21` [Compound 40-4, 6-hydroxy-3-(4-methylthiazol-5-yl)-2-(pyridin-2-yl)-1H-inden-1-one], the EC50 (at Aβ1-42 (setting [2]); in assay [1]) was over 250 µM throughout.

Turning to `Cc1ncsc1C1=C(c2cnccn2)C(=O)c2cc(OCCCc3ccccc3)ccc21` [Compound 41, 3-(4-methylthiazol-5-yl)-6-(3-phenylpropoxy)-2-(pyrazin-2-yl)-1H-inden-1-one], the EC50 on Aβ1-42 (setting [2]) is under 20 µM; in assay [1] it was over 250 µM.

Take `Cc1ncsc1C1=C(c2cnccn2)C(=O)c2cc(O)ccc21` [Compound 41-4, 6-hydroxy-3-(4-methylthiazol-5-yl)-2-(pyrazin-2-yl)-1H-inden-1-one]: the EC50 (at Aβ1-42 (setting [2]); in assay [1]) was over 250 µM each time.

With `Cn1cc(C2=C(c3cccnc3)C(=O)c3cc(OCCCc4ccccc4)ccc32)cn1` [Compound 42, 3-(1-methyl-1H-pyrazol-4-yl)-6-(3-phenylpropoxy)-2-(pyridin-3-yl)-1H-inden-1-one], the EC50 (at Aβ1-42 (setting [2]); in assay [1]) was over 250 µM in each case.

With `COc1ccc2c(c1)C(=O)C(c1cccnc1)=C2c1cnn(C)c1` [Compound 42-6, 6-methoxy-3-(1-methyl-1H-pyrazol-4-yl)-2-(pyridin-3-yl)-1H-inden-1-one], the EC50 (at Aβ1-42 (setting [2]); in assay [1]) was 20 to 100 µM in each case.

For `Cn1cc(C2=C(c3cccnc3)C(=O)c3cc(O)ccc32)cn1` [Compound 42-7, 6-hydroxy-3-(1-methyl-1H-pyrazol-4-yl)-2-(pyridin-3-yl)-1H-inden-1-one], the EC50 at Aβ1-42 (setting [2]) is over 250 µM; in assay [1], 100 to 250 µM.

For the compound `O=C1C(c2cccnc2)=C(c2cn[nH]c2)c2ccc(OCCCc3ccccc3)cc21` [Compound 43, 6-(3-phenylpropoxy)-3-(1H-pyrazol-4-yl)-2-(pyridin-3-yl)-1H-inden-1-one], the 50% effective concentration (EC50) (at Aβ1-42 (setting [2]); in assay [1]) was over 250 µM throughout.

For `COc1ccccc1C1=C(c2cccnc2)C(=O)c2cc(OCCCc3ccccc3)ccc21` [Compound 44, 3-(2-methoxyphenyl)-6-(3-phenylpropoxy)-2-(pyridin-3-yl)-1H-inden-1-one], the concentration giving a half-maximal response (EC50) was under 20 µM at Aβ1-42 (setting [2]) and over 250 µM in assay [1].

Regarding `COc1ccccc1C1=C(c2cccnc2)C(=O)c2cc(O)ccc21` [Compound 44-8, 6-hydroxy-3-(2-methoxyphenyl)-2-(pyridin-3-yl)-1H-inden-1-one], the EC50 is 100 to 250 µM at Aβ1-42 (setting [2]) and 20 to 100 µM in assay [1].

With `COc1cccc(OC)c1C1=C(c2cccnc2)C(=O)c2cc(OCCCc3ccccc3)ccc21` [Compound 45, 3-(2,6-dimethoxyphenyl)-6-(3-phenylpropoxy)-2-(pyridin-3-yl)-1H-inden-1-one], the results for the EC50 (at Aβ1-42 (setting [2]); in assay [1]) were under 20 µM and 100 to 250 µM, respectively.

As for `COc1cccc(OC)c1C1=C(c2cccnc2)C(=O)c2cc(O)ccc21` [Compound 45-8, 3-(2,6-dimethoxyphenyl)-6-hydroxy-2-(pyridin-3-yl)-1H-inden-1-one], the EC50 is 100 to 250 µM at Aβ1-42 (setting [2]) and over 250 µM in assay [1].
